Measurements: PubChem BioAssay (NCI)
Values joined by “and” are separate entries in the source; they are usually repeats but may differ in a detail not shown here. Equal values may be shown once.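 Dose response: 5 concentrations. Exposure: 48 h. Format: 96-well plates. Endpoint: linear interpolation; highest concentration if not reached. GI50 = concentration required for 50% inhibition of growth. TGI marks complete inhibition of growth.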 Where a SMILES comes first, the peptide text is derived from it. The star is where a group is joined. Cbz = O=C(OCc1ccccc1)*; Boc = CC(C)(C)OC(=O)*; Bn = c1ccc(C*)cc1

Assays:
Assay in all cases: growth of human tumour cells (NCI), 48 h
SF-539 CNS = system: SF-539 CNS
COLO 205 colon = system: COLO 205 colon
HCT-116 colon = system: HCT-116 colon
U251 CNS = system: U251 CNS
LOX IMVI melanoma = system: LOX IMVI melanoma
SK-MEL-5 melanoma = system: SK-MEL-5 melanoma
TK-10 renal = system: TK-10 renal
HCC-2998 colon = system: HCC-2998 colon
UACC-257 melanoma = system: UACC-257 melanoma
NCI-H23 lung = system: NCI-H23 lung
CCRF-CEM leukemia = system: CCRF-CEM leukemia
A498 renal = system: A498 renal
OVCAR-4 ovarian = system: OVCAR-4 ovarian
NCI-H226 lung = system: NCI-H226 lung
UACC-62 melanoma = system: UACC-62 melanoma
MDA-MB-435 = system: MDA-MB-435
T-47D breast = system: T-47D breast

Row | Compound | TGI (SF-539 CNS) | TGI (COLO 205 colon) [µM] | TGI (HCT-116 colon) | TGI (U251 CNS) | TGI (LOX IMVI melanoma) | TGI (SK-MEL-5 melanoma) | TGI (TK-10 renal) | TGI (HCC-2998 colon) | TGI (UACC-257 melanoma) | TGI (NCI-H23 lung) | TGI (CCRF-CEM leukemia) | TGI (A498 renal) | TGI (OVCAR-4 ovarian) [µM] | TGI (NCI-H226 lung) | TGI (UACC-62 melanoma) | GI50 (HCC-2998 colon) | TGI (MDA-MB-435) [µM] | TGI (T-47D breast) [µM]
1 | CCOC(=O)NC(C(=O)OCC)C(F)(F)F (centres undefined) | > 100 µM | > 100 | > 100 µM | > 100 µM | > 100 µM | > 100 µM | > 100 µM | > 100 µM | > 100 µM | > 100 µM | > 100 µM | – | – | – | – | – | – | –
2 | COc1cc(C2c3cc4c(cc3[C@@H](NCCN3CCCCC3)C3COC(=O)[C@H]23)OCO4)cc(OC)c1O (some centres undefined) | 0.842 µM and 0.896 µM | > 100 | 10.6 µM and 14.6 µM | 1.44 µM and 1.62 µM | 1.72 µM and 1.61 µM | 1.93 µM and 2.19 µM | 5.34 µM and 5.88 µM | 1.97 µM and 2.37 µM | 41.4 µM and 85 µM | 1.39 µM and 1.48 µM | 0.36 µM and 0.465 µM | 0.904 µM and 1.47 µM | > 100 | 0.209 µM and 0.208 µM | 1.73 µM and 1.79 µM | 0.427 µM and 1.09 µM | – | –
3 | CN(C(=O)c1ccc(Cl)cc1)C(=S)N1CCN(c2ccccn2)CC1 | > 100 µM | > 100 | > 100 µM | > 100 µM | > 100 µM | > 100 µM | > 100 µM | – | > 100 µM | > 100 µM | > 100 µM | – | > 100 | > 100 µM | > 100 µM | – | – | –
4 | c1cc(CSP234N5CCN2CCN3CCN4CC5)ccc1CSP123N4CCN1CCN2CCN3CC4 | > 100 µM | > 100 | > 100 µM | > 100 µM | > 100 µM | > 100 µM | > 100 µM | > 100 µM | > 100 µM | > 100 µM | > 100 µM | – | > 100 | – | > 100 µM | – | > 100 | > 100
5 | COc1ccc(C(=O)c2sc(Nc3ccccc3)nc2N)cc1 | > 100 µM | – | – | > 100 µM | > 100 µM | > 100 µM | > 100 µM | > 100 µM | > 100 µM | > 100 µM | > 100 µM | > 100 µM | > 100 | > 100 µM | > 100 µM | – | – | > 100
6 | OCC1OC(NCCNCCNC2OC(CO)C(O)C(O)C2O)C(O)C(O)C1O (centres undefined) | > 100 µM | > 100 | > 100 µM | > 100 µM | > 100 µM | > 100 µM | > 100 µM | > 100 µM | > 100 µM | > 100 µM | > 100 µM | > 100 µM | – | > 100 µM | > 100 µM | – | – | > 100
7 | Nc1ccc(C(=O)NN2C(=O)C(Cl)C2c2cc(Br)ccc2O)cc1 (centres undefined) | > 100 µM | > 100 | 32.5 µM | 90.3 µM | > 100 µM | > 100 µM | > 100 µM | > 100 µM | > 100 µM | > 100 µM | > 100 µM | > 100 µM | > 100 | > 100 µM | > 100 µM | – | – | –
8 | COc1cc(Cl)cc(N(O)C(C)=O)c1OCc1ccccc1 | > 100 µM | > 100 | > 100 µM | > 100 µM | > 100 µM | > 100 µM | > 100 µM | > 100 µM | > 100 µM | > 100 µM | > 100 µM | > 100 µM | > 100 | > 100 µM | > 100 µM | – | – | –
9 | C(=Nc1ccc(-c2cc(-c3ccccc3)nc3ccc4ccccc4c23)cc1)c1ccccc1 | 66.3 µM | 42.6 | > 100 µM | > 100 µM | > 100 µM | 42.3 µM | 74.6 µM | 26.6 µM | 92.1 µM | > 100 µM | > 100 µM | 70.3 µM | 13.5 | 66.3 µM | 62.1 µM | – | 55.5 | –
10 | COC(=O)C1=C(C(=O)OC)C2C(C)=CC(C)=CN2C(C#N)=C(SC)S1 (centres undefined) | 61.4 µM | 34.4 | 29.6 µM | > 100 µM | 35.4 µM | 30.7 µM | 69.8 µM | 94.5 µM | 64.3 µM | 36.4 µM | 56.5 µM | – | – | 39.9 µM | – | – | – | –
11 | NC1=NNC2(C(=O)N1)c1ccccc1-c1ccccc12 | > 10 µM | > 10 | > 10 µM | > 10 µM | > 10 µM | > 10 µM | > 10 µM | > 10 µM | – | > 10 µM | > 10 µM | > 10 µM | – | > 10 µM | – | – | – | > 10
12 | COP(=O)(OC)C(=NCc1ccccc1)NNc1ccc([N+](=O)[O-])cc1 | 44.7 µM | > 100 | 69 µM | 66.9 µM | – | 34.8 µM | > 100 µM | > 100 µM | 51.1 µM | 61.4 µM | 55.1 µM | – | 90.7 | – | > 100 µM | – | – | –
13 | CC(=O)CCC(=O)C(=[N+]=[N-])S(=O)(=O)c1ccccc1 | > 100 µM | > 100 | > 100 µM | > 100 µM | > 100 µM | > 100 µM | > 100 µM | > 100 µM | > 100 µM | > 100 µM | > 100 µM | – | – | – | > 100 µM | – | > 100 | –
14 | C/C(=N\Nc1ccccc1Br)c1cccc(/C(C)=N/Nc2ccccc2Br)n1 | > 100 µM | > 100 | > 100 µM | > 100 µM | > 100 µM | > 100 µM | > 100 µM | > 100 µM | > 100 µM | > 100 µM | > 100 µM | > 100 µM | > 100 | > 100 µM | – | – | > 100 | –
15 | O=c1c2c(c1=O)C1(SCCCS1)c1cc(Cl)ccc1O2 | > 100 µM | > 100 | > 100 µM | > 100 µM | > 100 µM | > 100 µM | > 100 µM | > 100 µM | > 100 µM | > 100 µM | > 100 µM | > 100 µM | > 100 | > 100 µM | > 100 µM | – | > 100 | –
16 | COC(=O)[C@@H](O)[C@]1(C(=O)OC)C2O[C@@H](OC)[C@@H]1CCCCCC[C@H]2O | > 100 µM | > 100 | > 100 µM | > 100 µM | > 100 µM | > 100 µM | > 100 µM | > 100 µM | > 100 µM | > 100 µM | > 100 µM | – | > 100 | > 100 µM | > 100 µM | – | > 100 | –
17 | COc1ccc(N(C)Sc2ccccc2)cc1 | 56 µM | > 100 | > 100 µM | > 100 µM | > 100 µM | > 100 µM | > 100 µM | > 100 µM | > 100 µM | > 100 µM | 58.6 µM | – | – | – | > 100 µM | – | – | –
18 | CCN1CN(c2ccccc2)C2(CCN(CCCSc3ccc(F)cc3)CC2)C1=O | 21.5 µM | 6.48 | 14.9 µM | – | 31.5 µM | 13.8 µM | 26.3 µM | – | 17.1 µM | 24.1 µM | 24.6 µM | – | – | 33.7 µM | 30.2 µM | – | 27.3 | 17.2
19 | CC(C)(C)[Si](C)(C)OCC1OC(n2ccc(=O)[nH]c2=O)C(O[Si](C)(C)C(C)(C)C)[C@@]12O[C@H]2C(N)=O (some centres undefined) | 13.4 µM | 24.8 | 22.1 µM | 23.2 µM | 18.1 µM | 16.5 µM | 48.3 µM | > 100 µM | > 100 µM | 28.7 µM | – | – | 89.5 | 11.4 µM | 99.3 µM | – | 23.1 | –
20 | CC(C)(C)OC(=O)NC(Cc1ccc(OCc2ccccc2)cc1)C(=O)NC(CCCCNC(=O)OCc1ccccc1)C(=O)O (centres undefined) (Boc-Tyr(Bn)-Lys(Cbz)-OH; configuration not given here) | – | > 100 | > 100 µM | > 100 µM | – | > 100 µM | > 100 µM | > 100 µM | > 100 µM | > 100 µM | > 100 µM | – | – | > 100 µM | 43.9 µM | – | – | –
21 | OCC1OC(Oc2cc(O)cc(/C=C/c3ccc(O)cc3)c2)C(O)C(O)C1O (centres undefined) | > 100 µM | – | > 100 µM | > 100 µM | > 100 µM | > 100 µM | > 100 µM | – | > 100 µM | – | > 100 µM | > 100 µM | > 100 | > 100 µM | > 100 µM | – | > 100 | –
22 | N#Cc1c(-c2ccc(Cl)cc2)c(C#N)c(=O)n(NS(=O)(=O)c2ccccc2)c1S | 42.1 µM | > 100 | 91.2 µM | 71.9 µM | 50.6 µM | 33.3 µM | 70.6 µM | – | > 100 µM | > 100 µM | > 100 µM | > 100 µM | > 100 | 77.1 µM | 58.3 µM | – | 65 | –
23 | COc1ccc(C2C3CCc4ccccc4C3=NN2S(=O)(=O)c2ccc(Cl)cc2)cc1 (centres undefined) | 39.1 µM | 23.1 | > 100 µM | 60.8 µM | > 100 µM | > 100 µM | > 100 µM | – | > 100 µM | > 100 µM | > 100 µM | – | > 100 | > 100 µM | > 100 µM | – | 4.62 | > 100
24 | O=C1NCCCC12CCCNC2=O | > 100 µM | > 100 | > 100 µM | > 100 µM | > 100 µM | > 100 µM | – | > 100 µM | > 100 µM | > 100 µM | > 100 µM | – | – | > 100 µM | – | – | – | –
25 | O=c1[nH]c(=O)n(COCCO)c2ccc(Br)cc12 | > 100 µM | > 100 | > 100 µM | > 100 µM | > 100 µM | > 100 µM | > 100 µM | – | > 100 µM | – | > 100 µM | > 100 µM | > 100 | > 100 µM | > 100 µM | – | > 100 | –
